Tests used:
[1] = target: T1, human recombinant ALDH1a1 (Homo sapiens, UniProt P00352); experiment: ALDH enzyme inhibition assay (ALDH1a1), diaphorase/resorufin fluorescence; assay type: biochemical; conditions: for IC50: read-out: IC50 (µM) ± SE (ALDH1a1); for fold reduction of ALDH1a1 inhibitory activity: relative to compound (2)
T1 sequence (P00352 1-501): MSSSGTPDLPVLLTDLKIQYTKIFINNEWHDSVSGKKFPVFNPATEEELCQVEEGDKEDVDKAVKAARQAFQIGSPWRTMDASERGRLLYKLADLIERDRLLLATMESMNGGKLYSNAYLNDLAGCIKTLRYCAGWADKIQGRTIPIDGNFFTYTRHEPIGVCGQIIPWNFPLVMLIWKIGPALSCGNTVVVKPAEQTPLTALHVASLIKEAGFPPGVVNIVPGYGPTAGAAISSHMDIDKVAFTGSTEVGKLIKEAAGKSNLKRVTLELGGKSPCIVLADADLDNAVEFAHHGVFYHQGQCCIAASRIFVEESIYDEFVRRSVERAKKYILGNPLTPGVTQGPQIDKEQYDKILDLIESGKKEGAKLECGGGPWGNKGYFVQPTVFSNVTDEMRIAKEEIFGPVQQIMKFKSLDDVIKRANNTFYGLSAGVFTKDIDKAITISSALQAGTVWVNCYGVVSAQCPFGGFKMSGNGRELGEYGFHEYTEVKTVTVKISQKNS
Experimental: (§1) The inhibitory activity of the thiuram disulfide (4) was evaluated in vitro against human recombinant ALDH1a1 and ALDH2, as shown in Figure 3 and Table 1.
(§2) All tested compounds were prepared as 100 mM stock solutions in DMSO. […] Five µL of desalted enzyme […] Five µL of reaction buffer were also added to the “no enzyme” background control wells. The test compounds were added to the assay wells. The reaction plate was then centrifuged briefly at 1200 rpm, then incubated for 20 min at RT. […] The reaction plate was briefly centrifuged and incubated at RT for 60 min. Ten µL of detection reagent composed of 15 µg/mL diaphorase and […] were added. The reaction plate was briefly centrifuged and incubated for a further 10 min at RT in the dark.

human recombinant ALDH2 [2] = target: T2, human recombinant ALDH2 (Homo sapiens, UniProt P05091); experiment: ALDH enzyme inhibition assay (ALDH2), diaphorase/resorufin fluorescence; assay type: biochemical; conditions: average of at least two experiments ± standard error; 100 µM acetaldehyde, 500 µM NAD+; 20 min preincubation; NI = no inhibition up to 0.5 mM; read-out: IC50 (µM) ± SE (ALDH2)
T2 sequence (P05091 18-517): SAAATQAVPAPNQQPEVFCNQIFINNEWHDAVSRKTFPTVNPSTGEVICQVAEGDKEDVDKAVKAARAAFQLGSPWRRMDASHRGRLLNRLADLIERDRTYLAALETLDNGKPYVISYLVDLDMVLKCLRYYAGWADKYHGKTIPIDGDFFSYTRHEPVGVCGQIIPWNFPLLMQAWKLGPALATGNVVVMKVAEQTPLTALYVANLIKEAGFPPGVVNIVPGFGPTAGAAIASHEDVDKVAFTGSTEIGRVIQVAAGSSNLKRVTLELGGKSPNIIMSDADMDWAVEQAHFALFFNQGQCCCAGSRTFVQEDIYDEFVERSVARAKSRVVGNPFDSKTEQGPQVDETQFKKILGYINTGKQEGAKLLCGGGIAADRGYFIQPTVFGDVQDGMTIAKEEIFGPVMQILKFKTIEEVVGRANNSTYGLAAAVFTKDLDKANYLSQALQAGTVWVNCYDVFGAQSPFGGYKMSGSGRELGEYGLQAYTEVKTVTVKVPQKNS
Experimental: as §1, §2

human recombinant ALDH2 [3] = target: T2, human recombinant ALDH2; conditions: previously reported; cited from earlier work
[4] = average of at least two experiments ± standard error, 250 µM acetaldehyde, 500 µM NAD+, 20 min preincubation, NI = no inhibition up to 0.5 mM

Row | IC50 [1, 4] [µM] | IC50 (human recombinant ALDH2 [2]) [µM] | fold reduction of ALDH1a1 inhibitory activity [1] | IC50 (µM) ± SE (ALDH1a1) [1, 4] | Compound | IC50 against ALDH2 (human recombinant ALDH2 [3])
1 | 0.17 ± 0.06 | > 500 | – | – | CCN(Cc1ccc(F)cc1)C(=S)SSC(=S)N(CC)Cc1ccc(F)cc1 [Compound 2] | no inhibition
2 | 0.31 ± 0.14 | > 500 | 2 fold | – | CCN(Cc1cccc(F)c1)C(=S)SSC(=S)N(CC)Cc1cccc(F)c1 [Compound 4a, bis(N-3-Fluorobenzylethylthiocarbamoyl)disulphide] | –
3 | 0.59 ± 0.46 | > 500 | 3.5 fold | – | CCN(Cc1ccccc1F)C(=S)SSC(=S)N(CC)Cc1ccccc1F [Compound 4b, bis(N-2-Fluorobenzylethylthiocarbamoyl)disulphide] | –
4 | 0.86 ± 0.68 | > 500 | five | – | CCN(Cc1ccc(Cl)cc1)C(=S)SSC(=S)N(CC)Cc1ccc(Cl)cc1 [Compound 4c, bis(N-4-Chlorobenzylethylthiocarbamoyl)disulphide] | –
5 | > 500 | > 500 | – | completely inactive | CCN(Cc1ccc(C(F)(F)F)cc1)C(=S)SSC(=S)N(CC)Cc1ccc(C(F)(F)F)cc1 [Compound 4d, bis(N-4-trifluoromethylbenzylethylthiocarbamoyl)disulphide] | –
6 | 0.58 ± 0.41 | > 500 | – | – | CCN(Cc1ccc(OC)cc1)C(=S)SSC(=S)N(CC)Cc1ccc(OC)cc1 [Compound 4e] | –
7 | 5.76 ± 4.01 | > 500 | more than 33 fold | – | CCN(Cc1ccncc1)C(=S)SSC(=S)N(CC)Cc1ccncc1 [Compound 4f, bis(N-(4-pyridylmethyl)ethylthiocarbamoyl)disulphide] | –
8 | 0.39 ± 0.27 | 200 | – | – | CCN(Cc1ccco1)C(=S)SSC(=S)N(CC)Cc1ccco1 [Compound 4g, bis(N-(2-furylmethyl)ethylthiocarbamoyl)disulphide] | –
9 | 0.39 ± 0.31 | > 500 | – | – | CCN(Cc1cccs1)C(=S)SSC(=S)N(CC)Cc1cccs1 [Compound 4h, bis(N-(2-thienylmethyl)ethylthiocarbamoyl)disulphide] | –
10 | 0.17 ± 0.1 | > 500 | – | – | CCN(Cc1ccsc1)C(=S)SSC(=S)N(CC)Cc1ccsc1 [Compound 4i, bis(N-(3-thienylmethyl)ethylthiocarbamoyl)disulphide] | –

From PMC8778300 (Molecules, 2022)
